Earlier results in patent publication US20050129759A1, “Sustained release compositions and controlled delivery method” (priority 2003, published 2005).

Conditions: not entrapped; stated as typical behaviour

Which “stability of free active agent” value does the source give for `NC(N)=O.OO` [urea peroxide] here?
The value was “very unstable, shock sensitive, and deteriorates very quickly on contact with air humidity”.
